Some test systems named below: M19-MEL; KM-20L2; LXFL 529; RXF 631; HOP-18; DLD-1; BT-549; NCI/ADR-RES; Hs-578T.
Holding throughout (assay): NCI-60 cell line screen, 48 h

Where a name gives a salt, the structure may show the parent alone.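 Tested at 5 concentrations; 48 h exposure; 96-well plates; endpoints linearly interpolated, else capped at highest concentration. GI50: concentration for 50% inhibition of growth.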 Calls of active or inactive are those of the source. Cut-off read from the data, not from the text of the source: active = GI50 up to about 1.1 µM and inactive = higher. Some results are limits rather than exact numbers.

As to `O=C1Cc2c([nH]c3ccccc23)-c2cc(Br)ccc2N1`, the GI50 in the experiment on M19-MEL, with KM-20L2, in the experiment on LXFL 529, in the experiment with RXF 631, in the experiment on HOP-18 and in the experiment with DLD-1 was > 100 µM (inactive) throughout.
As for `OCC(CO)C1c2cccc3ccc4cccc1c4c23`, the GI50 in the experiment with M19-MEL, with KM-20L2, in the experiment on RXF 631, in the experiment on HOP-18 and with DLD-1 was > 100 µM (inactive) in each case.
On to `CC(/C=C/C(=O)c1sc(C(N)=S)nc1C)=C\c1ccccc1`, for which the GI50 in the experiment with M19-MEL is > 100 µM (inactive); with KM-20L2, 80.2 µM (inactive); in the experiment on LXFL 529, > 100 µM (inactive); in the experiment on RXF 631, 40.6 µM (inactive); with HOP-18, > 100 µM (inactive); in the experiment on DLD-1 it was 21 µM (inactive).
In the case of `CN(C)c1ccc(/C=c2\sc3nnc(-c4ccco4)n3c2=O)cc1`, the GI50 with M19-MEL, in the experiment on KM-20L2, with LXFL 529, in the experiment on RXF 631, in the experiment on HOP-18 and in the experiment on DLD-1 was > 100 µM (inactive) throughout.
For the compound `CCOC(=O)C12CCCC1(O)N(NC(=O)c1ccccc1)C(C)=C2C(=O)OC` (stereo not drawn), the GI50 with M19-MEL, in the experiment with KM-20L2, with LXFL 529 and in the experiment on HOP-18 was > 100 µM (inactive) throughout.
Turning to `COc1cc2[nH]c3c(c2cc1OC)CCN[C@]31CC[C@]2(CC3c4c(cc(OC)c(O)c42)CCN3C)C[C@H]1OC` (stereo partly drawn), the GI50 is 17.9 µM (inactive) in the experiment with M19-MEL; 28.1 µM (inactive) in the experiment on KM-20L2; 24.5 µM (inactive) with LXFL 529; 11.7 µM (inactive) in the experiment on RXF 631; 18 µM (inactive) in the experiment on HOP-18; 24.4 µM (inactive) in the experiment on DLD-1.
With `NC(=O)NNC(=O)NC12CC3CC(CC(C3)C1)C2`, the GI50 with M19-MEL, in the experiment with KM-20L2, in the experiment with LXFL 529, with HOP-18 and in the experiment on DLD-1 was > 100 µM (inactive) in each case.
For the compound `COc1cc2c(oc(=O)c3c4oc([Si](C)(C)C)cc4cc(OC)c23)c2cccc(O)c12`, the GI50 in the experiment on M19-MEL, in the experiment with KM-20L2, in the experiment with LXFL 529, in the experiment with HOP-18 and with DLD-1 was > 100 µM (inactive) throughout.
As to `Nc1nc(NCCO)c(N=O)c(=O)[nH]1`, the GI50 with M19-MEL, in the experiment on KM-20L2, with LXFL 529, in the experiment on HOP-18 and with DLD-1 was > 100 µM (inactive) each time.
With `COC(=O)OCC1OC(N2C(=O)NC(=O)C(I)C2N=[N+]=[N-])CC1OC(=O)OC` (stereo not drawn), the GI50 in the experiment with M19-MEL, in the experiment on KM-20L2, with LXFL 529, with RXF 631 and in the experiment on DLD-1 was > 100 µM (inactive) each time.
Take `O=C1CCC(=O)C1=NNc1cc(Cl)cc(Cl)c1`: the GI50 with M19-MEL, with RXF 631, in the experiment with HOP-18 and in the experiment with DLD-1 was > 100 µM (inactive) throughout.
Regarding `COc1ccc(/C=C/c2cc(OC)cc(OC)c2)cc1` [TRISMETHOXYRESVERATROL], the GI50 with M19-MEL is 6.31 µM (inactive); in the experiment on KM-20L2, 3.15 µM (inactive); in the experiment on LXFL 529, 4.86 µM (inactive); in the experiment with RXF 631 it was 4.2 µM (inactive); in the experiment on HOP-18, > 24.3 µM (inactive); in the experiment with DLD-1, 5.28 µM (inactive).
Consider `COc1ccc2c(c1)C(O)(C(F)(F)F)c1cc(C(=O)C(F)(F)F)c3ccccc3c1N2` (stereo not drawn), for which the GI50 in the experiment with M19-MEL is 14.8 µM (inactive); with KM-20L2, 3.71 µM (inactive); in the experiment on LXFL 529, 10.3 µM (inactive); in the experiment on RXF 631, 13.5 µM (inactive); with HOP-18, 17.4 µM (inactive); in the experiment on DLD-1, 10.2 µM (inactive).
Take `CC(C)CC12CC3CCC(CNC1=O)C32C` (stereo not drawn): the GI50 in the experiment with M19-MEL, in the experiment with LXFL 529, in the experiment with HOP-18 and in the experiment on DLD-1 was > 100 µM (inactive) in each case.
For the compound `O=C(Nc1ccccc1[N+](=O)[O-])/C(=N/Nc1cccc(Cl)c1)c1c(O)c2ccccc2oc1=O`, the GI50 in the experiment on M19-MEL is > 100 µM (inactive); in the experiment with KM-20L2, > 100 µM (inactive); with LXFL 529, 31 µM (inactive); with HOP-18 it was > 100 µM (inactive); with DLD-1, 49.3 µM (inactive).
As to `Cc1cc(C)nc(NS(=O)(=O)c2ccc(NC(=O)c3ccc(Cl)c4c(Nc5ccc(S(=O)(=O)Nc6nc(C)cc(C)n6)cc5)c5ccccc5nc34)cc2)n1`, the GI50 in the experiment on M19-MEL was 2.91 µM (inactive); in the experiment with KM-20L2, 6.43 µM (inactive); in the experiment with LXFL 529, 4.69 µM (inactive); in the experiment with RXF 631, 4.29 µM (inactive); with HOP-18 it was 2.32 µM (inactive); with DLD-1 it was 21.9 µM (inactive).
As for `CC(C)(C)/N=N/C(C)(C)N=C=O`, the GI50 with M19-MEL, in the experiment with KM-20L2, with LXFL 529, with HOP-18 and in the experiment with DLD-1 was > 100 µM (inactive) in each case.
Consider `COc1ccc2[nH]c3c(cnn4cnnc34)c2c1`, for which the GI50 in the experiment with M19-MEL, with KM-20L2, with LXFL 529, in the experiment with RXF 631, in the experiment on HOP-18 and with DLD-1 was > 100 µM (inactive) throughout.
As to `CC(C)(C)c1cc(C(O)(C(F)(F)F)C(F)(F)F)c2c(c1)C(C(F)(F)F)(C(F)(F)F)OC(C(C)(C)C)N2` (stereo not drawn), the GI50 in the experiment on M19-MEL is 2.47 µM (inactive); in the experiment on KM-20L2, 2.86 µM (inactive); in the experiment on LXFL 529, 2.82 µM (inactive); with RXF 631, 2.15 µM (inactive); in the experiment with HOP-18 it was 2.55 µM (inactive); with DLD-1, 4.21 µM (inactive).
For the compound `COC1CC(OC)C(O)C(CO)O1` (stereo not drawn), the GI50 with M19-MEL, in the experiment on KM-20L2, in the experiment with LXFL 529, with HOP-18 and in the experiment on DLD-1 was > 100 µM (inactive) throughout.
Take `CNC1C(O)CC(OC2C/C=C(\C)C/C(C)=C/C=C/CCC(C)CNC(=O)/C=C/C=C/C2C)OC1C` (stereo not drawn): the GI50 in the experiment with M19-MEL is 0.714 µM (active); with BT-549, 1.25 µM (inactive); in the experiment with KM-20L2, 0.63 µM (active); in the experiment with NCI/ADR-RES, 0.718 µM (active); with LXFL 529, 0.14 µM (active); in the experiment on RXF 631, 0.206 µM (active). For the same compound, the GI50 is 1.77 µM (inactive) in the experiment on HOP-18, 0.26 µM (active) in the experiment on DLD-1 and 0.502 µM (active) in the experiment with Hs-578T.
With `CC/C(=N\NS(=O)(=O)c1ccccc1)c1ccccc1`, the GI50 in the experiment on M19-MEL, in the experiment on KM-20L2, in the experiment on LXFL 529, in the experiment with RXF 631, in the experiment on HOP-18 and in the experiment on DLD-1 was > 100 µM (inactive) throughout.
Take `COc1nc(NC2OC(COC(C)=O)C(OC(C)=O)C(OC(C)=O)C2OC(C)=O)c2c(OC(C)=O)c(C)c(=O)oc2n1` (stereo not drawn): the GI50 in the experiment with M19-MEL, with KM-20L2, in the experiment with LXFL 529, with HOP-18 and with DLD-1 was > 100 µM (inactive) each time.
Consider `O=c1[nH]c(C2CCCCC2)nc2c(Cl)cccc12`, for which the GI50 in the experiment on M19-MEL, in the experiment with KM-20L2, with LXFL 529, in the experiment on HOP-18 and in the experiment on DLD-1 was > 100 µM (inactive) throughout.
For the compound `O=C(Cc1c(C(=O)Nc2ccccc2)sc(C(=O)Nc2ccccc2)c1CC(=O)Nc1ccccc1)Nc1ccccc1`, the GI50 with M19-MEL was > 100 µM (inactive); with KM-20L2, > 100 µM (inactive); with LXFL 529, > 100 µM (inactive); with HOP-18, 68.9 µM (inactive); in the experiment with DLD-1, > 100 µM (inactive).
On to `COC(=O)C1=CO[C@@H](C)[C@@H]2Cn3ccc4c5ccccc5nc-4c3C[C@H]12` [ALSTONINE HYDROCHLORIDE], for which the GI50 in the experiment on M19-MEL is > 100 µM (inactive); in the experiment on KM-20L2 it was > 100 µM (inactive); in the experiment with LXFL 529, > 100 µM (inactive); in the experiment with RXF 631, > 100 µM (inactive); with HOP-18, 32.7 µM (inactive); in the experiment with DLD-1, > 100 µM (inactive).
Turning to `O=c1[nH]c(=O)n(C2CC(O)C(CO)O2)cc1C(F)(C(F)(F)F)C(F)(F)F` (stereo not drawn), the GI50 in the experiment with M19-MEL is > 100 µM (inactive); in the experiment with KM-20L2, > 100 µM (inactive); with LXFL 529, > 100 µM (inactive); with HOP-18, 84.5 µM (inactive); in the experiment on DLD-1 it was > 100 µM (inactive).
`COC(=O)/C=C(\C(=O)OC)c1c2c3c(cc(OC)c(OC)c3c3ccccc13)CCN2C`: the GI50 in the experiment on M19-MEL was 33 µM (inactive); in the experiment with KM-20L2, 12.6 µM (inactive); in the experiment with LXFL 529, 42.1 µM (inactive); with RXF 631 it was 33.8 µM (inactive); in the experiment on HOP-18 it was 64.9 µM (inactive); in the experiment with DLD-1 it was 22.3 µM (inactive).
`Cn1c(=O)c2[nH]cnc2n(CC(=O)O)c1=O`: the GI50 with M19-MEL, in the experiment on KM-20L2, with LXFL 529, with RXF 631 and in the experiment on DLD-1 was > 100 µM (inactive) throughout.

For the origin of these results see ChEMBL document CHEMBL1201862, “PubChem BioAssay data set” (2004).
